# Source: the supplement of paper PMC11451515
# Tested on: NOMO1
# Assay: cell viability relative to DMSO control; higher = less cytotoxic
# Conditions: 48 h
# Outline: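 Cells were incubated for 48 h at 37°C before CellTiter-Glo One luminescence was read. The cells were NOMO1 or SEM (500 cells/well) or P12-Ichikawa (1000 cells/well) leukemia cells, adapted for at least four passages in each medium and seeded in 1536-well plates (5 μl). Dosing used library compounds in DMSO applied by pin over 11 threefold points, 47 μM to 0.79 nM. Viability is the per-plate percentage of DMSO wells, with cell-free wells as background.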
# [1] = HPLM + 10% dialyzed FBS, 0.000781 µM
# [2] = HPLM + 10% dialyzed FBS, 0.00234 µM
# [3] = HPLM + 10% dialyzed FBS, 0.00702 µM
# [4] = HPLM + 10% dialyzed FBS, 0.0211 µM
# [5] = HPLM + 10% dialyzed FBS, 0.0632 µM
# [6] = HPLM + 10% dialyzed FBS, 0.19 µM
# [7] = HPLM + 10% dialyzed FBS, 0.569 µM
# [8] = HPLM + 10% dialyzed FBS, 1.71 µM
# [9] = HPLM + 10% dialyzed FBS, 5.12 µM
# [10] = HPLM + 10% dialyzed FBS, 15.4 µM
# [11] = HPLM + 10% dialyzed FBS, 46.1 µM
# [12] = RPMI 5 mM glucose + 10% FBS, 0.000781 µM
# [13] = RPMI 5 mM glucose + 10% FBS, 0.00234 µM
# [14] = RPMI 5 mM glucose + 10% FBS, 0.00702 µM
# [15] = RPMI 5 mM glucose + 10% FBS, 0.0211 µM
# [16] = RPMI 5 mM glucose + 10% FBS, 0.0632 µM
# [17] = RPMI 5 mM glucose + 10% FBS, 0.19 µM
# [18] = RPMI 5 mM glucose + 10% FBS, 0.569 µM
# [19] = RPMI 5 mM glucose + 10% FBS, 1.71 µM
# [20] = RPMI 5 mM glucose + 10% FBS, 5.12 µM
# [21] = RPMI 5 mM glucose + 10% FBS, 15.4 µM
# [22] = RPMI 5 mM glucose + 10% FBS, 46.1 µM
# [23] = RPMI 5 mM glucose + 10% dialyzed FBS, 0.000781 µM
# [24] = RPMI 5 mM glucose + 10% dialyzed FBS, 0.00234 µM
# [25] = RPMI 5 mM glucose + 10% dialyzed FBS, 0.00702 µM
# [26] = RPMI 5 mM glucose + 10% dialyzed FBS, 0.0211 µM
# [27] = RPMI 5 mM glucose + 10% dialyzed FBS, 0.0632 µM
# [28] = RPMI 5 mM glucose + 10% dialyzed FBS, 0.19 µM
# [29] = RPMI 5 mM glucose + 10% dialyzed FBS, 0.569 µM
# [30] = RPMI 5 mM glucose + 10% dialyzed FBS, 1.71 µM
# [31] = RPMI 5 mM glucose + 10% dialyzed FBS, 5.12 µM
# [32] = RPMI 5 mM glucose + 10% dialyzed FBS, 15.4 µM
# [33] = RPMI 5 mM glucose + 10% dialyzed FBS, 46.1 µM
SMILES,cell viability [1] [%],cell viability [2] [%],cell viability [3] [%],cell viability [4] [%],cell viability [5] [%],cell viability [6] [%],cell viability [7] [%],cell viability [8] [%],cell viability [9] [%],cell viability [10] [%],cell viability [11] [%],cell viability [12] [%],cell viability [13] [%],cell viability [14] [%],cell viability [15] [%],cell viability [16] [%],cell viability [17] [%],cell viability [18] [%],cell viability [19] [%],cell viability [20] [%],cell viability [21] [%],cell viability [22] [%],cell viability [23] [%],cell viability [24] [%],cell viability [25] [%],cell viability [26] [%],cell viability [27] [%],cell viability [28] [%],cell viability [29] [%],cell viability [30] [%],cell viability [31] [%],cell viability [32] [%],cell viability [33] [%]
O=C1\C=C(/OC2=C1C=CC=C2C3=CC=CC=C3)N4CCOCC4,95.4,99.2,99.9,90.4,91.9,90.4,86.7,63.9,82.5,66.5,75.6,82.4,88,89.1,84.7,79.9,83,81.7,77,82.4,80.9,76,75.2,86.5,81.7,83.9,87.4,79.7,82.3,66.1,89.8,79.1,88.1
CO/N=C(/C(=O)N[C@@H]1C(=O)N2C(C(=O)O)=C(Cn3ccc(=N)n3CCO)CS[C@H]12)c1csc(N)n1,104,115,131,136,130,116,120,130,137,133,166,–,–,–,–,–,–,–,–,–,–,–,112,117,129,133,138,140,130,123,153,138,134
CC(C)C[C@H](CN)CC(=O)O,105,108,122,109,98.1,96.1,108,117,101,79.6,91.7,90.3,95.6,102,97.8,87.9,89.9,99.3,93.6,91.5,90.3,83.8,97.3,100,105,106,95.8,97.6,99.3,89.3,99.2,92.1,90
CCOC(=O)C/1=C(C)/NC(=S)NC1C2=CC=CC(=C2)O (centres undefined),–,–,–,–,–,–,–,–,–,–,–,103,124,117,128,123,47.3,22.7,24.3,19.3,22.3,17.1,117,120,133,126,132,99.5,33.2,32.1,22.9,26.4,23.3
COC[C@H](NC(=O)c1cnc(C)s1)C(=O)N[C@@H](COC)C(=O)N[C@@H](Cc1ccccc1)C(=O)[C@@]1(C)CO1,105,106,111,107,97.2,83.5,23.5,6.64,1.03,0.172,1.92,98.6,108,92.9,94.3,93.6,98.1,28.1,6.29,1.06,0.581,1.29,98.8,98.1,97.6,96.7,98.3,88.1,30.2,5.68,2.49,0.98,1.62
COc1ccc(/C=C\c2cc(OC)c(OC)c(OC)c2)cc1O,43.4,51.5,49,49,44.6,47,41.7,36.6,36.1,25.3,23.2,32.1,33.7,31.2,31.2,31.7,26.6,22.5,22.1,23.3,19,14.7,37.3,35.2,40.9,38.7,34.9,33.4,31.8,30.7,27.8,23.4,20
NC(=O)N1c2ccccc2CC(=O)c2ccccc21,115,124,121,126,123,136,128,137,126,143,163,–,–,–,–,–,–,–,–,–,–,–,–,–,–,–,–,–,–,–,–,–,–
CNC(=O)[C@H](Cc1ccccc1)NC(=O)[C@H](CC(C)C)[C@H](CSc1cccs1)C(=O)NO,79.9,100,91.7,101,86.8,93.7,97.8,94.7,89.4,77.8,79.7,85.6,76.9,73.4,81.1,93.5,87.7,87.2,95.4,75,78.3,91.8,78.9,89,81.5,96.7,87.6,89.1,101,92.8,83,70.8,81.3
O=C1Nc2ccccc2/C1=C1\Nc2ccccc2C1=O,105,116,112,112,99.1,97.7,110,96.4,112,102,90.5,93,87.4,97.6,103,103,94.7,93.7,88.7,96.2,85.6,86.9,98.2,95.9,109,100,88.1,93.9,89.4,94.3,89.4,89.1,84.9
COc1cc(N2CCC(O)CC2)ccc1Nc1cc(Nc2ccccc2[S+](=O)([O-])C(C)C)c2cc[nH]c2n1,105,131,64.6,53.7,96.5,96.3,89,79,74.1,62.1,65.6,91.7,92.6,84.6,84.9,98.7,84.4,92.4,86.6,87.6,74,71.9,90.4,83.4,97.3,100,101,87.8,63.4,84.7,87.5,67,67.1
N[C@@H](C(=O)N[C@H]1[C@H]2SC\C(=C(/N2C1=O)C(O)=O)Cl)C3=CC=CC=C3,123,124,125,136,150,119,126,108,134,145,135,–,–,–,–,–,–,–,–,–,–,–,–,–,–,–,–,–,–,–,–,–,–
CCCCCCCCCCCC(CC1OC(=O)C1CCCCCC)OC(=O)C(CC(C)C)NC=O (centres undefined),92.9,105,100,109,110,114,118,114,109,98.8,13.7,93.5,104,95.3,94.9,114,97.8,102,97.2,100,102,31,92.4,102,107,91.7,107,102,95.1,105,96.4,89.2,37.2
Cc1ccc(NC(=O)C2(c3ccc4c(c3)OC(F)(F)O4)CC2)nc1-c1cccc(C(=O)O)c1,107,122,95.4,102,98.8,53.4,19,9.04,7.86,6.36,4.68,97.6,93.2,99.6,96.9,91.6,43.4,17.4,10.2,7.42,6.77,4.07,99.8,99.8,92.1,110,102,56.8,27,11.4,8.3,7.38,4.48
CN1CCCN(C(=O)c2cccc(-c3ccc(/C=C4/C(=O)Nc5ccc(Cl)cc54)o3)c2)CC1,134,118,120,124,112,102,109,103,91.8,96.7,66.1,124,107,108,110,98.3,109,94.4,96.1,99.4,85.8,47.4,111,112,109,107,111,109,104,96.2,85.6,94.5,60
COc1cc2ncnc(-n3nc(-c4ccccn4)nc3N)c2cc1OC,82.3,102,111,101,110,93.7,95.2,112,86.3,74.8,0.936,83.5,86.2,92.7,101,88.6,96.3,84.9,99.3,84.7,78,1.29,82.5,89.4,93,110,98.4,96.7,98.5,94.5,81.8,76.4,3.64
